Source: patent publication US7790896B2, “RNA-selective probes for live cell imaging of nuclear structure and function” (New York University, priority 2006, dated 2010)

Legend:
[1] = Fluorescence spectrum in TE buffer of dyes selected from live cell imaging; format: physicochemical; details: dye 10 μM in TE buffer
Procedure: (§1) The fluorescence spectra data in the primary screening and selected dyes titration assay study was obtained by Gemini XS plate reader. RNA solution was prepared right before the assay experiments to avoid possible degradation and contamination. In the primary screening, 1 mg/mL RNA (type VI from torula yeast) buffer solution was used. Point scans were carried out first using five Ex/Em point sets ([…], 400/500, 450/550, 500/600, 550/650 nm). Spectra scans were then carried out for the selected dyes. Excitation wavelengths were set at 350 nm, 400 nm, 450 nm, 500 nm, and 550 nm and the emission wavelengths were scanned. RNA (16S- and 23S-ribosomal from E. coli) and DNA (salmon testes) titration experiments and quantum yield/extinction coefficient determination for the three best dyes were carried out by the plate reader as well. Excitation λmax obtained from F-2500 Hitachi Fluorophotometer was used. Absorbance wavelength was determined by SpectraMax Plus^384 absorbance plate reader. […] was chosen as standard and 480 nm was used as excitation wavelength in the scanning for quantum yield determination.

[2] = tested on: 3T3 fibroblast cells, 3T3-L1 adipocyte cells, Hela cells and A549 human lung carcinoma cells; assay: Secondary screening: live cell nuclear imaging properties in four cell lines; format: cell-based, mouse; details: dye 25 μM
Procedure: (§2) All cell staining imaging followed the same procedure. Generally, dyes in dry state were first dissolved in DMSO to obtain the stock solution. The stock solutions were then added directly to the cell culture wells to reach the desired concentration. Total DMSO was lower than 0.1%. After adding dyes, cells were incubated at 37° C. in 5% CO2 for 25 minutes. The medium was then removed and cells were rinsed with fresh medium twice. The cells were then imaged at ambient temperature in the medium. Exposure time was kept less than 5 seconds and adjusted to each dye.
The selected compounds from both primary screens (total 88) were resynthesized in large scale and purified. The compounds' live cell nuclear imaging properties were then tested by four cell lines, including two mouse cell lines: 3T3 fibroblast cells and 3T3-L1 adipocyte cells; and two human cancer cell lines: Hela cells and A549 human lung carcinoma cells. Herein, the final dye concentration in each test was decreased to 25 μM and all the experiments were repeated to establish reproducibility. […] Each of the three dyes contained at least one high affinity nucleic acid functional group (Trotta et al., “Solution Structure of DAPI Selectively Bound in the Minor Groove of a DNA T-T Mismatch-Containing Site: NMR and Molecular Dynamics Studies,” Nucleic Acids Res. 26:4706-4713 (1998); Loontiens et al., “Binding Characteristics of Hoechst 33258 with Calf Thymus DNA, Poly[d(A-T)], and d(CCGGAATTCCGG): Multiple Stoichiometries and Determination of Tight Binding with a Wide Spectrum of Site Affinities,” Biochem. 29:9029-9039 (1990); Zipper et al., “Investigations on DNA Intercalation and Surface Binding by SYBR Green I, Its Structure Determination and Methodological Implications,” Nucleic Acid Res. 32:E103 (2004); Glazer et al., “Stable Dye-DNA Intercalation Complexes as Reagents for High-Sensitivity Fluorescence Detection,” Nature 359:859-861 (1992), which are hereby incorporated by reference in their entirety) in building block II such as the terminal secondary amine for F22 and F112, the trimethoxy for E 144, and the indole for E36.

[3] = Fluorescent properties of free dye solution; format: physicochemical; details: TE buffer pH 7.5, dye 5 μM
Procedure: as §1, with “determination. […] Generally, the λmax (nm) of emission was determined by scanning a fixed excitation first, and the μmax (nm) of excitation was determined by scanning emission spectrum with a fixed μem (nm). The detailed fluorescent properties of three selected dyes including; excitation/emission μmax, the quantum yield and extinction coefficient of both free dye solution and dye-RNA solution were assessed (Table 5).” for “determination.”

[4] = tested on: RNA (16S- and 23S-ribosomal from E. coli); assay: Fluorescent properties of dye-RNA solution; format: binding; details: TE buffer pH 7.5, dye 5 μM, RNA 200 μg/mL
Procedure: as §1, with “determination. […] Generally, the λmax (nm) of emission was determined by scanning a fixed excitation first, and the μmax (nm) of excitation was determined by scanning emission spectrum with a fixed μem (nm). The detailed fluorescent properties of three selected dyes including; excitation/emission μmax, the quantum yield and extinction coefficient of both free dye solution and dye-RNA solution were assessed (Table 5).” for “determination.”

[5] = tested on: Hela, A549, 3T3, and 3T3-L1; assay: Optimization of working concentration and imaging properties, live cell staining; format: cell-based, human, mouse; details: 20, 10, 5 and 1 μM tested in four cell lines
Procedure: as §2
In fluorescence microscopic imaging studies, it is always desirable to use as little dye as possible to stain organelles in order to maximize specificity and minimize dye toxicity and cell death. To determine the lowest working concentration of each dye, four different concentrations (20 μM, 10 μM, 5 μM, and 1 μM) were tested in four cell lines (Hela, A549, 3T3, and 3T3-L1). Dyes E36, E144, and F112 were imaged using FITC channel, and F22 was imaged using Cy3 channel. Generally, a quality fluorescence signal for each dye was produced using a concentration of 5 μM for E36, E144, and F22 and 10 μM for F112 (Table 5). It was interesting to observe that compound F22 was brighter in 3T3 cells, and a concentration of 1 μM was sufficient for a clear image (FIG. 4). […] Little photobleaching and no obvious cell morphology or viability changes were observed during the tests.

[6] = tested on: Fixed-permeabilized Hela cells; assay: DNase and RNase digest test; format: cell-based, human; details: dye 50 μM, 2 hours
Procedure: Cells were first fixed using cold (−4° C.) pure methanol for 1 minute at ambient temperature. The cell membrane was then permeabilized by immersion in 1% Triton X-100 for 2 minutes. After rinsing with PBS twice, 100 μL of 50 μM dye PBS solution was added to three adjacent wells. Cells were then incubated in this dye PBS solution for 15 minutes in ambient temperature before being rinsed with clean PBS twice. 100 μL clean PBS (as control experiment), 30 μg/mL DNase (Sigma), or 25 μg/mL DNase-Free RNase (GE) was added to the three adjacent wells and incubated at 37° C. in 5% CO2 for 2 hours. Cells were rinsed with clean PBS twice before imaging. For each dye test, the fluorescent images were obtained using equal exposure time for control, DNase and RNase experiments. DAPI (10 μM) in PBS and SYTO®RNASelect (5 μM) in PBS solution were used for dual staining experiments. Duplicate experiments have been tested.
To further confirm that the compounds selectively bind RNA, a deoxyribonuclease (DNase) and ribonuclease (RNase) digest test was performed. In DNase digest, only the DNAs in the cell would be hydrolyzed. By contrast, in RNase digest, only RNAs would be hydrolyzed. Fixed-permeabilized Hela cells were used in this experiment and DAPI and SYTO®RNASelect were used as control dyes (FIG. 6). […] Still, its higher RNA-selective binding in live cell might be due to the complicated in vivo live cell environment, which may preferably direct this dye to nucleoli.

[7] = tested on: RNA (Type VI from torula yeast); assay: In vitro solution assay (primary screening): fluorescent emission fold change upon binding to RNA; details: dye 10 μM, RNA 500 μg/mL in TE buffer
Procedure: as §1
The screening strategy used in this study is illustrated in FIG. 2. Both in vitro RNA assays and live cell imaging methods were utilized in the primary screening of the dye library. Selective binding of the dye to RNA in solution was the primary criterion for selecting lead compounds for subsequent bioimaging studies, Herein, the library dyes' fluorescent emission intensity fold change upon binding to RNA was measured in solution. Dyes showing five-fold or higher emission changes in the presence of RNA were selected (Table 3). Note the dyes listed are identified by the building blocks I and II from Table 2. For example, A4 is the product made by reacting compound A from the list of Building block I and compound 4 from the list of Building block II.

3T3 cells = assay: Phototoxicity test, MTS assay of irradiated cells; format: cell-based, mouse; details: dye 5 μM (Hoechst 1 μM), irradiated 5 minutes, 24 hours incubation
Procedure: Dye DMSO stock solutions were diluted by fresh medium into working concentration (5 μM). Cells were cultured in 96-well plate for 12 hours before experiments. The cell medium was exchanged with dye medium solutions. Cells were then incubated in at 37° C., in 5% CO2 for 25 minutes before being irradiated by fluorescent light using the appropriate working filter (FITC for E36 and E144; Cy3 for F22) for 5 minutes. The plates were then incubated at 37° C. in 5% CO2 The cell viability was measured by MTS assay after 5 and 24 hours following the cytotoxicity measurement procedure. Duplicated experiments have been tested.
Phototoxicity is also an important factor in evaluating applicability of new fluorescent probes for live cell imaging. […] Nevertheless, it is desirable for the new imaging probes to be as non-phototoxic as possible. To investigate the phototoxicity of the present RNA-selective compounds, cellular viability of irradiated cells using MTS assay was assessed. Cells were incubated with dyes (E36, E144, and F22) in their working concentration (5 μM), and then irradiated with the appropriate filters using the fluorescent microscope (FITC for E36 and E144; Cy3 for F22). While light exposures used for imaging experiments are generally a few seconds long at most, cells were irradiated for 5 minutes for prolonged toxicity measurement. […]

Row | Compound | SPECTRUM EM [1] | SPECTRUM EX [1] | other results
1 | COc1ccc2c(ccc(C=Cc3ccc(-c4cccs4)s3)[n+]2C)c1 [Dye F119] | 610 nm | 500 nm | –
2 | COc1ccc2c(ccc(/C=C/c3cc(I)ccc3O)[n+]2C)c1 [Dye F120] | 550 nm | 450 nm | –
3 | COc1ccc2c(ccc(/C=C/c3cc(Br)ccc3OC)[n+]2C)c1 [Dye F137] | 540 nm | 400 nm | –
4 | COc1ccc2c(ccc(C=Cc3ccccc3N(c3ccccc3)c3ccccc3)[n+]2C)c1 [Dye F138] | 460 nm | 350 nm | –
5 | COc1ccc2c(ccc(C=Cc3ccc(C)c4ccccc34)[n+]2C)c1 [Dye F141] | 560 nm | 450 nm | –
6 | COc1ccc2c(ccc(C=Cc3c(C)ccc4ccccc34)[n+]2C)c1 [Dye F143] | 550 nm | 450 nm | –
7 | COC(=O)c1cc(OC)cc(OC)c1C=Cc1ccc2cc(OC)ccc2[n+]1C [Dye F145] | 540 nm | 400 nm | –
8 | COc1ccc2c(ccc(/C=C/c3ccc(OC)c(O)c3Cl)[n+]2C)c1 [Dye F155] | 540 nm | 450 nm | –
9 | CN1CCN(c2ccc3[nH]c(-c4ccc5[nH]c(-c6ccc(O)cc6)nc5c4)nc3c2)CC1 [Hoechst 33258] | – | – | Phototoxicity (3T3 cells): as toxic in 3T3 cells as F22

Continued, in another order:

Row | SPECTRUM EM [1] | SPECTRUM EX [1] | Compound | other results
10 | 620 nm | 500 nm | COc1ccc2c(ccc(/C=C/c3ccc(N(C)C)cc3[N+](=O)[O-])[n+]2C)c1 [Dye F112] | Live cell nuclear imaging properties (basis of selection) [2]: selective nucleolar targeting, high fluorescence intensity, low photobleaching, and low cellular toxicity; EM (emission λmax), Buffer [3]: 516 nm; EX (excitation λmax), Buffer [3]: 462 nm; EM (emission λmax), RNA [4]: 514 nm; EX (excitation λmax), RNA [4]: 465 nm; Optimum Concentration for live cell imaging [5]: 10 µM; Fluorescence after RNase digest ([6]; 25 μg/mL DNase-Free RNase): slight stain of the nucleus; Fluorescence after DNase digest ([6]; 30 μg/mL DNase): bright nucleolar staining remained
11 | 590 nm | 450 nm | COc1ccc2c(ccc(C=Cc3ccc4c5c(cccc35)CC4)[n+]2C)c1 [Dye F118] | –
12 | 510 nm | 400 nm | COc1ccc2c(ccc(/C=C/c3cccc(Br)n3)[n+]2C)c1 [Dye F128] | –
13 | 470 nm | 350 nm | COc1ccc2c(ccc(/C=C/c3cccc(OC)c3OC(C)=O)[n+]2C)c1 [Dye F153] | –
14 | 620 nm | 500 nm | COc1ccc2c(ccc(C=Cc3ccc(O)c(Br)c3)[n+]2C)c1 [Dye F158] | Em(nm) [7]: 620 nm; Ex(nm) [7]: 500 nm; Fold (fluorescent emission fold changes to RNA) [7]: 7
